As usually defined, the IC50 is the concentration that inhibits the measured activity by half.

The assay addresses EGFR del19 T790M C797S protein in Ba/F3 cells (Homo sapiens, UniProt P00533, C797S/DEL746-750/T790M). Briefly: pEGFR assay (AlphaScreen Surefire, EGFR Tyr1068 phosphorylation). In kind it is cell-based. On the procedure:
Transduced cells were selected using puromycin. Following selection, IL-3 was withdrawn and IL-3 independent cells cultured. p-EGFR Tyr1068 was determined using the AlphaScreen Surefire pEGF Receptor (Tyr1068) Assay (PerkinElmer, TGRERS). […] Subsequently, 60.000 cells/well in 60 μL were added. Cells were incubated with compound for 4 h at 37° C. […] The mixture was incubated at room temperature with shaking (700 rpm) for 20 min. After centrifugation, 4 μL of the lysate were transferred to Proxiplates. […] Plates were shaken for 1 min (1400 rpm) and incubated for 2 h at room temperature in the dark.
The results of the assay are provided as IC50 values (see table 12).
(In Alpha technology, singlet oxygen from a donor bead excites a nearby acceptor bead.)

Chain of EGFR del19 T790M C797S protein in Ba/F3 cells (P00533 with tags, fused parts or gaps C797S/DEL746-750/T790M limits assumed): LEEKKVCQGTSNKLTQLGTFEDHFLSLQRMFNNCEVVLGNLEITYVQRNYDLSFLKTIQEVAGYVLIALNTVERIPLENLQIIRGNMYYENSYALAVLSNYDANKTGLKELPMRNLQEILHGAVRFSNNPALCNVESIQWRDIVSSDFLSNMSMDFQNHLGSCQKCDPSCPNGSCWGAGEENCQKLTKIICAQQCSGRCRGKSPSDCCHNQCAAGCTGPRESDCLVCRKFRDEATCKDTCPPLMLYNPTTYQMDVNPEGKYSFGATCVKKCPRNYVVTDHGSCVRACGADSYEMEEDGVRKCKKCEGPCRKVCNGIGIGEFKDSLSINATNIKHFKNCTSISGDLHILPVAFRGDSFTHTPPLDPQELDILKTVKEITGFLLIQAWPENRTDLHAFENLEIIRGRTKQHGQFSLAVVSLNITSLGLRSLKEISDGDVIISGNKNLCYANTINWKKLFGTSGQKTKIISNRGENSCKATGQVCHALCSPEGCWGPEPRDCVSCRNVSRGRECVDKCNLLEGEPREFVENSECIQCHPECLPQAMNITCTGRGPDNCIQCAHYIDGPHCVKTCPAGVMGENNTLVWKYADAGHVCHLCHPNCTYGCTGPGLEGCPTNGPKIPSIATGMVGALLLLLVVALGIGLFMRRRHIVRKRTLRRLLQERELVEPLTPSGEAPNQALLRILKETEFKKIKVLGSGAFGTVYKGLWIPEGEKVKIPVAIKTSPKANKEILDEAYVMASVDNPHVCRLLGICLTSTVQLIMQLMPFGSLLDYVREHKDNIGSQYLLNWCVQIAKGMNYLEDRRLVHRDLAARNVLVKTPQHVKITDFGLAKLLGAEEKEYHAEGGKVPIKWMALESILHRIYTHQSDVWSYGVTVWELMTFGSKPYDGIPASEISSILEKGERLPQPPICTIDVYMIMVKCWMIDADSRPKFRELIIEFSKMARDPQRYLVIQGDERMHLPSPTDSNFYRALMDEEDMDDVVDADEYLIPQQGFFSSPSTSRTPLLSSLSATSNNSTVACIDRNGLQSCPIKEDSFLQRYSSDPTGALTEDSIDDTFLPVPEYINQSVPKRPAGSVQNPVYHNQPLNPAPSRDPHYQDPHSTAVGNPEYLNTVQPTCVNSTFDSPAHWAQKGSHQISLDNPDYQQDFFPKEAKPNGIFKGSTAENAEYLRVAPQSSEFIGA

The molecule `COc1ccccc1-c1cc(C(=O)/N=c2\[nH]c3ccccc3n2[C@H]2CCC[C@H](O)C2)ccn1` [I-119] returned an IC50 of 3 nM. That is a single-digit nanomolar value. In the case of `Cn1cnc2c(-c3cc(C(=O)/N=c4\[nH]c5ccccc5n4CC(C)(C)O)ccn3)cccc21` [I-95] it was 74 nM; in that of `Cc1ccncc1-c1cc(C(=O)/N=c2\[nH]c3ccccc3n2CC(C)(C)O)ccn1` [I-016], 58 nM; in that of `Cn1cc(-c2cc(C(=O)/N=c3\[nH]c4ccccc4n3[C@@H]3CCCC[C@H]3O)ccn2)cn1` [I-154], 9 nM. Molecule `COc1ccccc1-c1cc(C(=O)/N=c2\[nH]c3ccccc3n2[C@H]2COCC[C@@H]2O)ccn1` [I-155] showed an IC50 of 5 nM.

On to `COc1ccccc1-c1cc(C(=O)/N=c2\[nH]c3ccccc3n2[C@H]2CCCC[C@@H]2O)ccn1` [I-97], for which the midpoint of inhibition, the IC50, lay at 14 nM.

`CN(C)c1ccc2c(c1)[nH]/c(=N\C(=O)c1ccnc(-c3cccnc3)c1)n2CC(C)(C)O` [I-79]: half-maximal inhibition (IC50) required 42 nM. Regarding `CN(C)CCOCCNc1ccc2c(c1)[nH]/c(=N\C(=O)c1ccnc(-c3cnn(C)c3)c1)n2CC(C)(C)O` [I-87], inhibition was half-maximal at 81 nM (IC50).

`COc1ccccc1-c1cc(C(=O)/N=c2\[nH]c3ccccc3n2[C@H]2CCCOC2)ccn1` [I-123] returned a half-maximal inhibitory concentration (IC50) of 2 nM. This IC50 is about 40-fold lower than that of the molecule before. As for `CC(C)(O)Cn1/c(=N/C(=O)c2ccnc(-c3ccsc3)c2)[nH]c2ccccc21` [I-050], the IC50 was found to be 24 nM. Turning to `COCCCNc1cc2[nH]/c(=N\C(=O)c3ccnc(-c4cnn(C)c4)c3)n(CC(C)(C)O)c2cc1C` [I-71], the IC50 amounted to 86 nM. For the molecule `Cn1cc(-c2cc(C(=O)/N=c3\[nH]c4cc(C5CCNCC5)ccc4n3[C@H]3CC[C@@H](O)CC3)ccn2)cn1` [I-218], inhibition was half-maximal at 18 nM (IC50). Consider `Cc1cc(C(=O)/N=c2\[nH]c3ccc(N4CCN(C)CC4)cc3n2[C@H]2CC[C@@H](O)CC2)cc(-c2cnn(C)c2)n1` [I-227], for which it took 2 nM to reach half-maximal inhibition (IC50). The molecule `COC[C@H]1CCCN1Cc1ccc2c(c1)[nH]/c(=N\C(=O)c1ccnc(-c3ccccc3OC)c1)n2[C@H]1CC[C@@H](O)CC1` [I-152] displayed an IC50 of 4 nM. Compared with the last molecule, the IC50 is about 2-fold higher.

`COc1ccccc1-c1cc(C(=O)/N=c2\[nH]c3cc(CN4CCCCC4)ccc3n2CC(C)(C)O)ccn1` [I-059] returned an IC50 of 3 nM. `Cc1ccccc1-c1cc(C(=O)/N=c2\[nH]c3ccccc3n2[C@H]2CC[C@@H](O)CC2)ccn1` [I-166] gave an IC50 of 7 nM.

As to `C[C@@H]1CN(c2ccc3c(c2)[nH]/c(=N\C(=O)c2ccnc(-c4cnn(C)c4)c2)n3CC(C)(C)O)C[C@H](C)N1C` [I-73], the IC50 worked out at 81 nM. The same measure for `CNC(=O)Cc1ccc2c(c1)[nH]/c(=N\C(=O)c1ccnc(-c3cccnc3)c1)n2CC(C)(C)O` [I-131]: 92 nM. The molecule `CC(C)(O)Cn1/c(=N/C(=O)c2ccnc(-c3cccnc3)c2)[nH]c2cc(Cl)ccc21` [I-066] yielded a 50% inhibitory concentration (IC50) of 23 nM. The same measure for `Cn1ncc2c(-c3cc(C(=O)/N=c4\[nH]c5ccccc5n4CC(C)(C)O)ccn3)cccc21` [I-88]: 11 nM; for `CCc1ccc2[nH]/c(=N\C(=O)c3ccnc(-c4cccnc4)c3)n(CC(C)(C)O)c2c1` [I-84]: 21 nM; for `O=C(/N=c1\[nH]c2ccccc2n1[C@H]1CC[C@@H](O)CC1)c1ccnc(-n2ccc3ccccc32)c1` [I-125]: 11 nM. Molecule `Cc1cc(C(=O)/N=c2\[nH]c3ccc(N4CCN(C)CC4)cc3n2C2CCCCC2)cc(-c2cnn(C)c2)n1` [I-233] showed a half-maximal inhibitory concentration (IC50) of 2 nM. As for `COc1ccccc1-c1cc(C(=O)/N=c2\[nH]c3cc(C4CCN(C(C)=O)CC4)ccc3n2[C@H]2CC[C@@H](O)CC2)ccn1` [I-121], the IC50 was determined as 2 nM. The molecule `O=C(/N=c1\[nH]c2ccccc2n1[C@H]1CC[C@@H](O)CC1)c1ccnc(-c2cccc3ccnn23)c1` [I-89] registered an IC50 of 8 nM. In turn, `COCCN(C)c1ccc2c(c1)[nH]/c(=N\C(=O)c1ccnc(-c3cccnc3)c1)n2CC(C)(C)O` [I-065] came in with an IC50 of 30 nM. Molecule `Cn1cc(-c2cc(C(=O)/N=c3\[nH]c4ccccc4n3[C@H]3CC[C@@H](O)CC3)cc(F)n2)cn1` [I-133] returned an IC50 of 1 nM. In turn, `COc1ccccc1-c1cc(C(=O)/N=c2\[nH]c3ccccc3n2[C@@H]2CCC[C@H](O)C2)ccn1` [I-129] gave an IC50 of 5 nM. Consider `CNC(=O)c1cccc(-c2cc(C(=O)/N=c3\[nH]c4ccccc4n3CC(C)(C)O)ccn2)c1` [I-100], for which the IC50 stood at 76 nM. Molecule `COc1ccccc1-c1cc(C(=O)/N=c2\[nH]c3ccccc3n2[C@@H]2CCCOC2)ccn1` [I-122] gave an IC50 of 2 nM.

The molecule `CN(C)c1cccc(-c2cc(C(=O)/N=c3\[nH]c4ccccc4n3CC(C)(C)O)ccn2)c1` [I-94] returned an IC50 of 99 nM. Take `O=C(/N=c1\[nH]c2ccccc2n1[C@H]1CC[C@@H](O)CC1)c1ccnc(-n2ccnc2)c1` [I-226]: the IC50 stood at 7 nM. Compared with the last molecule, the IC50 is about 14-fold lower. `COCCN1CCC(c2ccc3c(c2)[nH]/c(=N\C(=O)c2ccnc(-c4cccnc4)c2)n3CC(C)(C)O)CC1` [I-046] came in with an IC50 of 2 nM.

Molecule `COCCN1CCC(c2ccc3[nH]/c(=N\C(=O)c4cc(C)nc(-c5cnn(C)c5)c4)n(C4CCCCC4)c3c2)CC1` [I-229] gave a 50% inhibitory concentration (IC50) of 23 nM. The same measure for `CC(C)(O)Cn1/c(=N/C(=O)c2ccnc(-c3cccnc3)c2)[nH]c2cc(CO)ccc21` [I-067]: 16 nM; for `Cc1cc2c(cc1N1CCCCC1)[nH]/c(=N\C(=O)c1ccnc(-c3cnn(C)c3)c1)n2CC(C)(C)O` [I-70]: 94 nM; for `CN(C)CCNc1ccc2c(c1)[nH]/c(=N\C(=O)c1ccnc(-c3cnn(C)c3)c1)n2CC(C)(C)O` [I-82]: 14 nM.

`CN(C)C(=O)c1cccc(-c2cc(C(=O)/N=c3\[nH]c4ccccc4n3CC(C)(C)O)ccn2)c1` [I-103] gave an IC50 of 43 nM.

`COc1ccccc1-c1cc(C(=O)/N=c2\[nH]c3cc(CN4CC[C@H](OC)C4)ccc3n2[C@H]2CC[C@@H](O)CC2)ccn1` [I-151] returned an IC50 of 4 nM. Turning to `CC(C)(O)Cn1/c(=N/C(=O)c2ccnc(-c3cccnc3)c2)[nH]c2cc(N3CCCCC3)ccc21` [I-77], the IC50 came out at 76 nM. The molecule `CC(C)(O)Cn1/c(=N/C(=O)c2ccnc(-c3ccccn3)c2)[nH]c2ccccc21` [I-106] registered an IC50 of 97 nM. The same measure for `COc1cnccc1-c1cc(C(=O)/N=c2\[nH]c3ccccc3n2[C@H]2CC[C@@H](O)CC2)ccn1` [I-147]: 4 nM; for `CC(C)(O)Cn1/c(=N/C(=O)c2ccnc(-c3cnccc3Cl)c2)[nH]c2ccccc21` [I-027]: 55 nM; for `COc1ccccc1-c1cc(C(=O)/N=c2\[nH]c3cc(CN4CCCC(OC)C4)ccc3n2[C@H]2CC[C@@H](O)CC2)ccn1` (stereo partly shown) [I-153]: 4 nM. `Cc1cc(C(=O)/N=c2\[nH]c3ccc(C4CCN(C)CC4)cc3n2C2CCCCC2)cc(-c2cnn(C)c2)n1` [I-228] gave an IC50 of 2 nM. `CN1CCN(c2ccc3[nH]/c(=N\C(=O)c4cc(F)nc(-c5cnn(C)c5)c4)n(C4CCCCC4)c3c2)CC1` [I-232] displayed an IC50 of 1 nM. `CC(C)(O)Cn1/c(=N/C(=O)c2ccnc(-c3cccs3)c2)[nH]c2ccccc21` [I-051] registered an IC50 of 27 nM. As for `Cc1cc2c(cc1N(C)C)[nH]/c(=N\C(=O)c1ccnc(-c3cnn(C)c3)c1)n2CC(C)(C)O` [I-231], inhibition was half-maximal at 63 nM (IC50). Molecule `CC(C)(O)Cn1/c(=N/C(=O)c2ccnc(-c3cccc4ccnn34)c2)[nH]c2ccccc21` [I-90] yielded an IC50 of 12 nM.

Source of the values: patent US11174245B2, “Benzimidazole compounds and derivatives as EGFR inhibitors” (Boehringer Ingelheim International GmbH, priority 2018, dated 2021).
